Measured values from patent US10501479B2, “Benzenesulfonyl-asymmetric ureas and medical uses thereof” (HELSINN HEALTHCARE SA, priority 2016, dated 2019).
Like-named read-outs stand apart in the source and are kept apart here.

Legend:
[1] = Metabolic stability in mouse liver microsomes; assay type: in vitro ADME
In short: (§1)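 Parent compound was measured by LC-MS/MS at time zero and after 10, 30 and 90 min at 37 °C. Incubations used liver microsomes from four species (human, dog, rat, mouse) with an NADPH regenerating system in pH 7.4 potassium phosphate buffer. Each timepoint was stopped with cold quench solution.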

[2] = biological target: T1, GHSR-1a (HEK293/GHSR1a cell line) (Homo sapiens, UniProt Q92847); assay: Ghrelin agonist potency (EC50) with calcium FLIPR assay; assay type: cell-based
T1 construct: expressed in transfected cells; host or cells: HEK293/GHSR1a cell line
In short: (§2)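 Calcium flux was followed 2 min by FLIPR in dye-loaded HEK293/GHSR1a cells. For antagonist IC50, compound and ghrelin (10 nM) were co-added at t=20 sec and inhibition of the ghrelin signal fitted; for agonist EC50, compound alone was added at t=20 sec and dose-response fitted.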

[3] = Metabolic stability in human liver microsomes; assay type: in vitro ADME
In short: as §1

[4] = biological target: T2, recombinant human ghrelin receptor (HEK293/GRLN) (Homo sapiens, UniProt Q92847); assay: Ghrelin inverse agonist potency (EC50) with IP-1 (IP-One HTRF) assay; assay type: cell-based; conditions: IP-1 assay
T2 construct: expressed in transfected cells
In short: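 IP-1 accumulation was measured by HTRF (IP1-d2/Tb-cryptate, 620/665 nm read after 1 hour at room temperature) following 1 hour of compound treatment at 37° C. Cells were HEK293 stably expressing human ghrelin receptor, plated a day earlier on Matrigel. Inverse agonist potency was reported as EC50.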

[5] = biological target: T1, GHSR-1a (HEK293/GHSR1a cell line); assay: Ghrelin antagonist potency (IC50) with calcium FLIPR assay, ghrelin 10 nM; assay type: cell-based
In short: as §2

[6] = HEK293/GHSR1a, read-out: Activity EC50/EMax: EC50 (ghrelin agonist potency)
[7] = HEK293/GRLN, read-out: Activity EC50 (ghrelin inverse agonist potency)
[8] = HEK293/GHSR1a, ghrelin 10 nM, read-out: Activity IC50 (ghrelin antagonist potency)
[9] = ghrelin agonist potency, read-out: Activity EC50/EMax
[10] = ghrelin inverse agonist potency, read-out: Activity EC50
[11] = ghrelin antagonist potency, read-out: Activity IC50

T2 sequence (Q92847 whole entry): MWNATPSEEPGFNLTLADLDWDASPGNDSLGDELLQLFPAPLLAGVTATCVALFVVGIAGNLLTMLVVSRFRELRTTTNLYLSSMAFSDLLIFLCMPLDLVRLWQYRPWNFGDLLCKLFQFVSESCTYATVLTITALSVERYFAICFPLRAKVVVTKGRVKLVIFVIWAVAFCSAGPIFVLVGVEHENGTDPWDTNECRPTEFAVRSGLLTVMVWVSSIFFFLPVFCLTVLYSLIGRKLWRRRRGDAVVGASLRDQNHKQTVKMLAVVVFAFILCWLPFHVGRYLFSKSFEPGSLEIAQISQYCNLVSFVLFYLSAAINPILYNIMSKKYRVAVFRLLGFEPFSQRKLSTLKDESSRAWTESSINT
T1 sequence (Q92847 whole entry): as above

Structure (SMILES) | Metabolic Stability Study M = mouse [1] | EC50 [2, 6] | Metabolic Stability Study H = human [3] | EC50 [4, 7] | IC50 [5, 8] | EC50 [2, 9] | EC50 [4, 10] | IC50 [5, 11]
COc1cc(S(=O)(=O)Cc2ccc3c(c2)CCN(C)C3)ccc1NC(=O)NC(C)c1cccc(Cl)c1Cl (stereo not drawn) [H1428, 1-(1-(2,3-dichlorophenyl)ethyl)-3-(2-methoxy-4-(((2-methyl-1,2,3,4-tetrahydroisoquinolin-6-yl)methyl)sulfonyl)phenyl)urea] | 194.8 µL/min/mg | > 30 µM | 69.3 µL/min/mg | 0.0005 µM | 0.0033 µM |  |  | 
CC(NC(=O)Nc1ccc(S(=O)(=O)Cc2ccc3c(c2)CN(C2CCOC2)C3)cc1)c1ccccc1.O=C(O)C(F)(F)F (stereo not drawn) [H1340, 1-(1-phenylethyl)-3-(4-(((2-(tetrahydrofuran-3-yl)isoindolin-5-yl)methyl)sulfonyl)phenyl)urea] | > 500 µL/min/mg | > 30 µM | 282.4 µL/min/mg | 0.0033 µM | 0.0047 µM |  |  | 
CCc1ccc(Cl)c(C(C)NC(=O)Nc2ccc(S(=O)(=O)Cc3ccc4c(c3)CN(C)C4)cc2)c1 (stereo not drawn) [H1286, 1-(1-(2-chloro-5-ethylphenyl)ethyl)-3-(4-(((2-methylisoindolin-5-yl)methyl)sulfonyl)phenyl)urea] | 162.4 µL/min/mg | > 30 µM | 251.8 µL/min/mg | 0.0243 µM | 0.0395 µM |  |  | 
CC(NC(=O)Nc1ccc(S(=O)(=O)Cc2ccc3c(c2F)CNC3)cc1)c1c(F)cccc1F (stereo not drawn) [H1410] | 358.6 µL/min/mg | > 30 µM | 73.3 µL/min/mg | 0.0132 µM | 0.032 µM |  |  | 
COc1cccc(F)c1C(C)NC(=O)Nc1ccc(S(=O)(=O)Cc2ccc3c(c2)CNC3)cc1 (stereo not drawn) [H1455, 1-(1-(2-fluoro-6-methoxyphenyl)ethyl)-3-(4-((isoindolin-5-ylmethyl)sulfonyl)phenyl)urea] | 56.9 µL/min/mg | > 30 µM | 55.5 µL/min/mg | 0.0052 µM | 0.0425 µM |  |  | 
CC(NC(=O)Nc1ccc(S(=O)(=O)Cc2ccc3c(c2)CCN(C)C3)cc1)c1ccccc1Cl (stereo not drawn) [H1344, 1-(1-(2-chlorophenyl)ethyl)-3-(4-(((2-methyl-1,2,3,4-tetrahydroisoquinolin-6-yl)methyl)sulfonyl)phenyl)urea] | 115.7 µL/min/mg | > 30 µM | 53.5 µL/min/mg | 0.0041 µM | 0.0044 µM |  |  | 
Cc1cc(S(=O)(=O)Cc2ccc3c(c2)CN(C)C3)ccc1NC(=O)NC(C)c1ccccc1 (stereo not drawn) [H1447, 1-(2-methyl-4-(((2-methylisoindolin-5-yl)methyl)sulfonyl)phenyl)-3-(1-phenylethyl)urea] | 42.6 µL/min/mg | > 30 µM | 72.5 µL/min/mg | 0.0065 µM | 0.1 µM |  |  | 
C[C@@H](NC(=O)Nc1ccc(S(=O)(=O)Cc2ccc3c(c2F)CN(C)C3)cc1)c1ccccc1 [H1363, (R)-1-(4-(((4-fluoro-2-methylisoindolin-5-yl)methyl)sulfonyl)phenyl)-3-(1-phenylethyl)urea] | 335.3 µL/min/mg | > 30 µM | 140.1 µL/min/mg | 0.00315 µM | 0.0084 µM |  |  | 
CC(NC(=O)Nc1ccc(S(=O)(=O)Cc2ccc3c(c2)CN(C)C3)cc1)c1cccc(Cl)c1 (stereo not drawn) [H1266, 1-(1-(3-chlorophenyl)ethyl)-3-(4-(((2-methylisoindolin-5-yl)methyl)sulfonyl)phenyl)urea] | 106.1 µL/min/mg | > 30 µM | 169.4 µL/min/mg | 0.0191 µM | 0.0242 µM |  |  | 
C[C@@H](NC(=O)Nc1ccc(S(=O)(=O)Cc2cc(F)c3c(c2)CNC3)cc1)c1ccccc1.Cl [H1394, (R)-1-(4-(((7-fluoroisoindolin-5-yl)methyl)sulfonyl)phenyl)-3-(1-phenylethyl)urea] | 182.5 µL/min/mg | > 30 µM | 67.4 µL/min/mg | 0.0078 µM | 0.0519 µM |  |  | 
CC(NC(=O)Nc1ccc(S(=O)(=O)Cc2ccc3c(c2)CN(C)C3)c(O)c1)c1ccccc1.O=C(O)C(F)(F)F (stereo not drawn) [H1487, 1-(3-hydroxy-4-(((2-methylisoindolin-5-yl)methyl)sulfonyl)phenyl)-3-(1-phenylethyl)urea] | 16.9 µL/min/mg |  | 26.1 µL/min/mg |  |  | > 30 µM | 0.0057 µM | 0.0187 µM
CC(NC(=O)Nc1ccc(S(=O)(=O)Nc2ccc3c(c2)CCN(C)C3)cc1)c1ccccc1F (stereo not drawn) [H1347, 4-(3-(1-(2-fluorophenyl)ethyl)ureido)-N-(2-methyl-1,2,3,4-tetrahydroisoquinolin-6-yl)benzenesulfonamide] | 58.1 µL/min/mg | > 30 µM | 59.9 µL/min/mg | 0.00795 µM | 0.0262 µM |  |  | 
COC(=O)c1cc(S(=O)(=O)Cc2ccc3c(c2)CNC3)ccc1NC(=O)NC(C)c1ccccc1 (stereo not drawn) [H1459, methyl 5-((isoindolin-5-ylmethyl)sulfonyl)-2-(3-(1-phenylethyl)ureido)benzoate] | 49.3 µL/min/mg |  | 53.7 µL/min/mg |  |  | > 30 µM | 0.0084 µM | 0.0115 µM
COc1cc(S(=O)(=O)Cc2ccc3c(c2)CNC3)ccc1NC(=O)NC(C)c1c(F)cccc1F (stereo not drawn) [H1412, 1-(1-(2,6-difluorophenyl)ethyl)-3-(4-((isoindolin-5-ylmethyl)sulfonyl)-2-methoxyphenyl)urea] | 122.4 µL/min/mg | > 30 µM | 22.5 µL/min/mg | 0.0043 µM | 0.0157 µM |  |  | 
COc1cc(S(=O)(=O)Cc2ccc3c(c2)CCN(C)C3)ccc1NC(=O)N(O)C(C)c1cccc(Cl)c1Cl.O=C(O)C(F)(F)F (stereo not drawn) [H1523, 1-(1-(2,3-dichlorophenyl)ethyl)-1-hydroxy-3-(2-methoxy-4-(((2-methyl-1,2,3,4-tetrahydroisoquinolin-6-yl)methyl)sulfonyl)phenyl)urea] | 155.5 µL/min/mg |  | 100.9 µL/min/mg |  |  | > 30 µM | 0.0021 µM | 0.00492 µM
CC(NC(=O)Nc1ccc(S(=O)(=O)Nc2ccc3c(c2)CCN(C)C3)cc1)c1ccccc1Cl (stereo not drawn) [H1334, 4-(3-(1-(2-chlorophenyl)ethyl)ureido)-N-(2-methyl-1,2,3,4-tetrahydroisoquinolin-6-yl)benzenesulfonamide] | 97.9 µL/min/mg | > 30 µM | 109.8 µL/min/mg | 0.0082 µM | 0.00918 µM |  |  | 
COc1cccc(F)c1C(C)NC(=O)Nc1ccc(S(=O)(=O)Cc2ccc3c(c2)CN(C)C3)cc1 (stereo not drawn) [H1454, 1-(1-(2-fluoro-6-methoxyphenyl)ethyl)-3-(4-(((2-methylisoindolin-5-yl)methyl)sulfonyl)phenyl)urea] | 193.3 µL/min/mg | > 30 µM | 259.9 µL/min/mg | 0.0061 µM | 0.0318 µM |  |  | 
COc1cccc(C(C)NC(=O)Nc2ccc(S(=O)(=O)Cc3ccc4c(c3)CN(C)C4)cc2)c1 (stereo not drawn) [H1326, 1-(1-(3-methoxyphenyl)ethyl)-3-(4-(((2-methylisoindolin-5-yl)methyl)sulfonyl)phenyl)urea] | 60.5 µL/min/mg | > 30 µM | 129.5 µL/min/mg | 0.0069 µM | 0.0098 µM |  |  | 
C[C@@H](NC(=O)Nc1ccc(S(=O)(=O)Cc2ccc3c(c2)C(F)CNC3)cc1)c1cccc(Cl)c1Cl (stereo partly drawn) [H1537, 1-((R)-1-(2,3-dichlorophenyl)ethyl)-3-(4-(((4-fluoro-1,2,3,4-tetrahydroisoquinolin-6-yl)methyl)sulfonyl)phenyl)urea] | 135.3 µL/min/mg |  | 43.2 µL/min/mg |  |  | > 30 µM | 0.0184 µM | 0.0689 µM
C[C@H](NC(=O)Nc1ccc(S(=O)(=O)Cc2ccc3c(c2)CN(C)CC3)cc1)c1ccccc1 [H1311, (S)-1-(4-(((2-methyl-1,2,3,4-tetrahydroisoquinolin-7-yl)methyl)sulfonyl)phenyl)-3-(1-phenylethyl)urea] | 123.8 µL/min/mg | > 30 µM | 95.9 µL/min/mg | 0.0846 µM | 0.108 µM |  |  | 
C[C@H](NC(=O)Nc1ccc(S(=O)(=O)Cc2ccc3c(c2)CN(C)C3)cc1)c1ccccc1 [H1299, (S)-1-(4-(((2-methylisoindolin-5-yl)methyl)sulfonyl)phenyl)-3-(1-phenylethyl)urea] | 50.9 µL/min/mg | > 30 µM | 71.5 µL/min/mg | 0.102 µM | 0.192 µM |  |  | 
